Consider 51 molecules from patent US8796244B2, “Imidazopyridine derivatives as inhibitors of receptor tyrosine kinases” (Astex Therapeutics Ltd, priority 2008, dated 2014).

Structures can show the parent of a compound that is named as a salt. Where two headings read alike, the source gives them in different places.

The experiment deals with parental wild-type Ba/F3 cells. Put plainly: Ba/F3 (WT) cell proliferation assay (Alamar Blue). The format is cell-based. To be noted: Mus musculus; for inhibition at 1 µM / inhibition at 10 µM / inhibition at 3 µM: BaF3, read-out: BaF3 WT prolif, % inhibition. A general note: The colour change of resazurin is a common sign of viable cells or microbes.
Where [1] appears, read: BaF3, 72 hours, Alamar Blue, read-out: BaF3 WT prolif.
Setting [2] is: BaF3, 72 h, read-out: BaF3 WT prolif (μM).

For `Cc1cc(-c2ccn3c(-c4cccc(NC(=O)NCC(F)(F)F)c4)cnc3c2)nc(C(F)(F)F)n1` [Example 237], the IC50 under setting [1] was 0.12 µM.
In the case of `CCOC(=O)c1cnc(-c2ccn3c(-c4cccc(NC(=O)NCC(F)(F)F)c4)cnc3c2)nc1N` [Compound 287], under setting [1], the IC50 stood at 0.99 µM.
Regarding `O=C(NCC(F)(F)F)Nc1cccc(-c2cnc3cc(/C=C/CO)ccn23)c1` [Example 206], the IC50 under setting [1] was found to be 2.9 µM.
Consider `CN(C)c1ccnc(-c2ccn3c(-c4cccc(NC(=O)NCC(F)(F)F)c4)cnc3c2)n1` [Example 120, 1-{3-[7-(4-Dimethylamino-pyrimidin-2-yl)-imidazo[1,2-a]pyridin-3-yl]-phenyl}-3-(2,2,2-trifluoro-ethyl)-urea hydrochloride], for which the IC50 under setting [2] was determined as 1.1 µM.
For `O=C(Nc1cccc(-c2cnc3cc(-c4nncs4)ccn23)c1)NC1CC1` [Example 158, 1-Cyclopropyl-3-[3-(7-[1,3,4]thiadiazol-2-yl-imidazo[1,2-a]pyridin-3-yl)-phenyl]-urea], the IC50 under setting [1] came to 2.9 µM.
Usually inhibition stands for the relative decrease from the control value, in per cent. As for `Cc1cc(N)nc(-c2ccn3c(-c4cccc(NC(=O)NCC(F)(F)F)c4)cnc3c2)n1` [Example 171], the inhibition at 1 µM turned out to be 16%.
`CSc1nc(N)cc(-c2ccn3c(-c4cccc(NC(=O)NCC(F)(F)F)c4)cnc3c2)n1` [Example 205]: under setting [1], the IC50 amounted to 9.8 µM.
Regarding `CCNC(=O)Nc1cccc(-c2cnc3cc(-c4ccc(F)c(C)n4)ccn23)c1` [Example 228], under setting [1], the IC50 stood at 5.1 µM.
With `Cc1nc(-c2ccn3c(-c4cccc(NC(=O)NCC(F)(F)F)c4)cnc3c2)ccc1F` [Example 172], the IC50 under setting [1] is 3.4 µM.
With `COc1cnc(Cl)nc1-c1ccn2c(-c3cccc(NC(=O)NCC(F)(F)F)c3)cnc2c1` [Example 139, 1-{3-[7-(2-Chloro-5-methoxy-pyrimidin-4-yl)-imidazo[1,2-a]pyridin-3-yl]-phenyl}-3-(2,2,2-trifluoro-ethyl)-urea], the IC50 under setting [1] stood at 3.6 µM.
For the molecule `CC(=O)N1CCN(c2ccc(-c3ccn4c(-c5cccc(NC(=O)NCC(F)(F)F)c5)cnc4c3)cn2)CC1` [Example 145, 1-(3-{7-[6-(4-Acetyl-piperazin-1-yl)-pyridin-3-yl]-imidazo[1,2-a]pyridin-3-yl}-phenyl)-3-(2,2,2-trifluoro-ethyl)-urea], the IC50 under setting [1] amounted to 0.82 µM.
With `Nc1nc(-c2ccn3c(-c4cc(F)cc(NC(=O)NCC(F)(F)F)c4)cnc3c2)ncc1F` [Compound 305], the inhibition at 10 µM worked out at 6%.
The same measure, in the same setting: as for `CC(=O)c1cnc(-c2ccn3c(-c4cccc(NC(=O)NCC(F)(F)F)c4)cnc3c2)nc1` [Compound 292], the figure is 38%.
For `NC1CN(c2ccnc(-c3ccn4c(-c5cccc(NC(=O)NCC(F)(F)F)c5)cnc4c3)n2)C1` [Example 197], under setting [1], the IC50 turned out to be 2.6 µM.
For `COCc1cc(-c2ccn3c(-c4cccc(NC(=O)NCC(F)(F)F)c4)cnc3c2)nc(N)n1` [Compound 335], the inhibition at 10 µM worked out at 20%. The IC50 under setting [1] is 0.74 µM.
`Nc1cc(-c2ccn3c(-c4cccc(NC(=O)NCC(F)(F)F)c4)cnc3c2)ncc1C(F)(F)F` [Example 234]: the IC50 under setting [1] was 6.4 µM.
Consider `O=C(NCC(F)(F)F)Nc1cccc(-c2cnc3cc(-c4nccc(N5CCNCC5)n4)ccn23)c1` [Compound 269], for which the inhibition at 3 µM was 0%.
For the molecule `O=C(NCC(F)(F)F)Nc1cccc(-c2cnc3cc(-c4cccc(CCO)c4)ccn23)c1` [Example 107, 1-(3-{7-[3-(2-Hydroxy-ethyl)-phenyl]-imidazo[1,2-a]pyridin-yl}-phenyl)-3-(2,2,2-trifluoro-ethyl)-urea formate], the IC50 under setting [2] turned out to be 0.89 µM.
Turning to `O=C(NCC(F)(F)F)Nc1cc(-c2cnc3cc(-c4ncccn4)ccn23)cc(C(F)(F)F)c1` [Compound 301], the IC50 under setting [1] was found to be 2.81 µM.
As to `Cc1cnnc(-c2ccn3c(-c4cccc(NC(=O)NCC(F)(F)F)c4)cnc3c2)n1` [Example 142, 1-{3-[7-(5-Methyl-[1,2,4]triazin-3-yl)-imidazo[1,2-a]pyridin-3-yl]-phenyl}-3-(2,2,2-trifluoro-ethyl)-urea], the IC50 under setting [1] worked out at 1.1 µM.
As for `Nc1nc(-c2ccn3c(-c4cccc(NC(=O)NCC(F)(F)F)c4)cnc3c2)ncc1OCCO` [Compound 316], the inhibition at 10 µM stood at 0%.
For the molecule `CC(C)(C(=O)NC1CC1)n1cc(-c2ccn3c(-c4cccc(NC(=O)NCC(F)(F)F)c4)cnc3c2)cn1` [Example 71, N-Cyclopropyl-2-[4-(3-{3-[3-(2,2,2-trifluoro-ethyl)-ureido]-phenyl}-imidazo[1,2-a]pyridin-yl)-pyrazol-1-yl)-isobutyramide], the IC50 under setting [1] was determined as 1.5 µM.
For the molecule `Cc1nc(N)cc(-c2ccn3c(-c4cccc(NC(=O)NCC(F)(F)F)c4)cnc3c2)n1` [Example 208], the inhibition at 10 µM is 21%.
For the molecule `Cn1ccnc1/C=C/c1ccn2c(-c3cccc(NC(=O)NCC(F)(F)F)c3)cnc2c1` [Example 189], the IC50 under setting [1] is 3.4 µM.
As for `Cc1cc(-c2ccn3c(-c4cccc(NC(=O)NCC(F)(F)F)c4)cnc3c2)nc(C(C)C)n1` [Example 226], the inhibition at 10 µM was 40%.
Consider `COCc1cc(N)nc(-c2ccn3c(-c4cccc(NC(=O)NCC(F)(F)F)c4)cnc3c2)n1` [Compound 324], for which the inhibition at 10 µM came out at 9.4%.
Turning to `O=C(NCC(F)(F)F)Nc1cccc(-c2cnc3cc(-c4cnn(C5CN(CCO)C5)c4)ccn23)c1` [Example 217], the inhibition at 3 µM amounted to 37%.
With `O=C(NCC(F)(F)F)Nc1cc(O)cc(-c2cnc3cc(-c4ccnc(C(F)(F)F)n4)ccn23)c1` [Compound 303], the inhibition at 10 µM was found to be 0%.
As for `Cc1nnc(-c2ccn3c(-c4cccc(NC(=O)NCC(F)(F)F)c4)cnc3c2)nc1C` [Example 118, 1-{3-[7-(5,6-Dimethyl-[1,2,4]triazin-3-yl)-imidazo[1,2-a]pyridin-3-yl]-phenyl}-3-(2,2,2-trifluoro-ethyl)-urea hydrochloride], the IC50 under setting [2] was determined as 0.88 µM.
`Cc1cc(-c2ccn3c(-c4cccc(NC(=O)NCC(F)(F)F)c4)cnc3c2)nnc1Cl` [Example 135, 1-{3-[7-(6-Chloro-5-methyl-pyridazin-3-yl)-imidazo[1,2-a]pyridin-3-yl]-phenyl}-3-(2,2,2-trifluoro-ethyl)-urea]: the IC50 under setting [1] is 0.51 µM.
In the case of `CCNC(=O)Nc1cccc(-c2cnc3cc(-c4ncc(C(F)(F)F)c(N)n4)ccn23)c1` [Example 235], under setting [1], the IC50 was determined as 1.2 µM.
`Cc1nc(-c2ccn3c(-c4cccc(NC(=O)NCC(F)(F)F)c4)cnc3c2)cc(N2CCN(CCO)CC2)n1` [Example 194]: the inhibition at 3 µM amounted to 26%.
Consider `O=C(NCC(F)(F)F)Nc1cc(CO)cc(-c2cnc3cc(-c4ccnc(C(F)(F)F)n4)ccn23)c1` [Compound 295], for which the inhibition at 10 µM was determined as 30%.
Consider `O=C(NCC(F)(F)F)Nc1cccc(-c2cnc3cc(-c4ccnc(C(F)(F)F)n4)ccn23)c1` [Example 199], for which the inhibition at 10 µM is 62%.
As to `CNC(=O)c1cc(C)nc(-c2ccn3c(-c4cccc(NC(=O)NCC(F)(F)F)c4)cnc3c2)n1` [Example 222], the IC50 under setting [1] came to 2.3 µM.
As for `O=C(NCC(F)(F)F)Nc1cccc(-c2cnc3cc(-c4nccc(=O)[nH]4)ccn23)c1` [Example 190], the inhibition at 3 µM was found to be 35%.
For `O=C(NCC(F)(F)F)Nc1cccc(-c2cnc3cc(-c4nccc(N5CC(O)C5)n4)ccn23)c1` [Example 203], the inhibition at 10 µM was found to be 30%.
Consider `O=C(NCC(F)(F)F)Nc1cccc(-c2cnc3cc(-c4cc(C(F)(F)F)ncn4)ccn23)c1` [Example 227], for which the IC50 under setting [1] amounted to 3.6 µM.
`Nc1nc(-c2ccn3c(-c4cc(Cl)cc(NC(=O)NCC(F)(F)F)c4)cnc3c2)ncc1F` [Compound 300]: the inhibition at 10 µM is 0%.
The same measure, in the same setting: as for `Cc1nnc(-c2ccn3c(-c4cccc(NC(=O)NC5CC5)c4)cnc3c2)o1` [Example 157, 1-Cyclopropyl-3-{3-[7-(5-methyl-[1,3,4]oxadiazol-2-yl)-imidazo[1,2-a]pyridin-3-yl]-phenyl}-urea], the figure is 38%.
Regarding `NC(=O)Nc1cccc(-c2cnc3cc(Cl)ccn23)c1` [Example 119, [3-(7-Chloro-imidazo[1,2-a]pyridin-3-yl)-phenyl]-urea], the inhibition at 3 µM was 23%.
For `O=C(NCC(F)(F)F)Nc1cccc(-c2cnc3cc(-c4nccc(C(=O)N5CCOCC5)n4)ccn23)c1` [Example 221], the inhibition at 3 µM amounted to 21%.
Turning to `Cc1nc2cc(-c3ccn4c(-c5cccc(NC(=O)NCC(F)(F)F)c5)cnc4c3)ccc2s1` [Example 219], under setting [1], the IC50 is 3.5 µM.
With `CC(C)(C)OC(=O)NCC1CCN(c2ccc(-c3ccn4c(-c5cccc(NC(=O)NCC(F)(F)F)c5)cnc4c3)cn2)CC1` [Compound 318], the IC50 under setting [1] came out at 0.42 µM.
For the molecule `Cc1cn2nc(-c3ccn4c(-c5cc(NC(=O)NCC(F)(F)F)cc(OC(C)C)c5)cnc4c3)sc2n1` [Example 247], the inhibition at 1 µM was 36%.
Turning to `Nc1cccc(-c2ccn3c(-c4cccc(NC(=O)NCC(F)(F)F)c4)cnc3c2)n1` [Example 106, 1-{3-[7-(6-Amino-pyridin-2-yl)-imidazo[1,2-a]pyridin-3-yl]-phenyl}-3-(2,2,2-trifluoro-ethyl)-urea hydrochloride], the IC50 under setting [2] turned out to be 0.41 µM.
On to `O=C(NCC(F)(F)F)Nc1cc(Cl)cc(-c2cnc3cc(-c4ccnc(C(F)(F)F)n4)ccn23)c1` [Compound 297], for which the IC50 under setting [1] is 5.5 µM.
With `COC(=O)c1cnc(-c2ccn3c(-c4cccc(NC(=O)NCC(F)(F)F)c4)cnc3c2)nc1` [Compound 290], the inhibition at 1 µM was 16%.
Take `Cc1cccnc1-c1ccn2c(-c3cccc(NC(=O)NCC(F)(F)F)c3)cnc2c1` [Example 104, 1-{3-[7-(3-Methyl-pyridin-2-yl)-imidazo[1,2-a]pyridin-3-yl]-phenyl}-3-(2,2,2-trifluoro-ethyl)-urea formate]: the IC50 under setting [2] worked out at 0.4 µM.
Consider `COc1ncccc1-c1ccn2c(-c3cccc(NC(=O)NCC(F)(F)F)c3)cnc2c1` [Example 150, 1-{3-[7-(2-Methoxy-pyridin-3-yl)-imidazo[1,2-a]pyridin-3-yl]-phenyl}-3-(2,2,2-trifluoro-ethyl)-urea], for which the IC50 under setting [1] came out at 1.7 µM.
As for `O=C(NCC(F)(F)F)Nc1cncc(-c2cnc3cc(-c4cnn(C5CNC5)c4)ccn23)c1` [Example 123, 1-{5-[7-(1-Azetidin-3-yl-1H-pyrazol-4-yl)-imidazo[1,2-a]pyridin-3-yl]-pyridin-3-yl}-3-(2,2,2-trifluoro-ethyl)-urea formate], the IC50 under setting [2] worked out at 8.9 µM.
